We go through one compound from patent US9951039B2, “Pyrimidines for treatment of bacterial infections” (The Hong Kong Polytechnic University, priority 2016, dated 2018).

In brackets after ≈: the same amount, converted by molar mass. Where two headings read alike, the source gives them in different places. Bounds are passed on as bounds.

The test system of one data set is MRSA ATCC 43300. As to the kind of experiment: Frequency of resistance (FOR) determination. The class given is cell-based, S. aureus. Conditions: 8 folds of MIC, after 48 hours' incubation. On the procedure: Procedure: MRSA ATCC 43300 cells were grown to late-exponential phase (1×10^9 CFU/mL) and spread on agars plates containing 1% DMSO or compound 14av_amine16 at 8 folds of MIC level. The plates were incubated for 48 hours to allow resistant mutants to grow. The spontaneous FOR was calculated as the number of resistance colonies divided by the number of CFUs originally plated. The assay was performed in triplicates.

Data set [1] deals with S. aureus ATCC 29247 (ampicillin resistant strain). The experiment in a line: MIC against clinically isolated strain 1. The class given is cell-based. Conditions: Staphylococcus aureus, ATCC29247. On the procedure: (§1) Procedure of Antimicrobial susceptibility test: The MIC value of compounds was measured in the antimicrobial susceptibility test using the broth microdilution procedure in accordance with the CLSI guidelines.^21 Cation-adjusted Mueller Hinton broth (CA-MHB) was used for all the S. aureus strains in the assay. Cells in exponential phase of growth were diluted to approximately 5×10^5 cfu/mL. Stock solutions of each compound were freshly dissolved in dimethyl sulfoxide (DMSO). Then, serial dilutions of each compound in CA-MHB medium were added into 96-well microplate. The final percentage of DMSO in the assay was 1%. Control experiments were performed with 1% DMSO instead of the compound solution. After being incubated at 37° C. for 18 h, OD600 value of cells was measured on a microplate reader and the percentage of bacterial cell inhibition with respect to controls was calculated. The MIC value was defined as the lowest compound concentration at which the growth of bacteria was inhibited by ≥90%. Three independent assays were performed for each compound.
(§2) Results: Three compounds, namely 14av_amine16, 14dv_amine16 and 14dv_amine06, were selected to be tested against nine in-house clinically isolated bacterial strains including S. aureus ATCC29247, which is an ampicillin resistant strain, S. aureus ATCC BAA-41, ATCC BAA-1717, ATCC BAA-1720, ATCC 43300 which are methicillin resistant strains and four USA300 strains, (#417, #757, #1799 and #2690), which are the predominant strain type of community-associated MRSA strains in the United States.

Data set [2] has as its system S. aureus ATCC BAA-1717 (methicillin resistant). As to the kind of experiment: MIC against clinically isolated strain 2. The format is cell-based. Conditions: Staphylococcus aureus, ATCCBAA1717. On the procedure:
as §1, §2

Data set [3] can be described thus: Compound solubility observed in aqueous medium of GTPase assay. The class given is physicochemical. Conditions: higher concentration (>80 μM) causes precipitation in aqueous medium. The text has this: Nonetheless, it seems very likely that compound 14av_amine16 suppresses the self-polymerization of FtsZ protein, probably via disrupting the GTPase hydrolysis activity of FtsZ protein.

A further data set relates to E. coli strain ATCC25922. The experiment in a line: MIC, broth microdilution antimicrobial susceptibility test (CLSI). The format is cell-based. Conditions: Escherichia coli, ATCC25922; E. coli ATCC 25922; growth inhibited by ≥90%, 18 h; read-out: MIC^c: Minimum inhibitory concentration against E. coli.
Text: (§3) This example illustrates the evaluation of 2,4,6-trisubstituted pyrimidines 14 for their antimicrobial activities against the Gram positive S. aureus strain ATCC29213 and the Gram negative E. coli strain ATCC25922 by measuring their MIC, which is the lowest concentration of an antimicrobial agent that prevents visible growth of a microorganism in a broth dilution susceptibility test according to the standard method approved by the Clinical and Laboratory Standards Institute (CLSI) guidelines.^21
as §1
Background: Dilution methods test growth across graded concentrations, often in twofold steps.

In data set [4] the test system is S. aureus strain ATCC29213. Described as above. The class given is cell-based. Conditions: for MIC: Staphylococcus aureus.
Text: as §3, §1

Consider `CCC(CC)c1cc(CCN2CCCN(Cc3ccc(C(F)(F)F)cc3)CC2)nc(-c2ccncc2)n1` [Compound 14av_amine16, 1-(2-(6-(pentan-3-yl)-2-(pyridin-4-yl)pyrimidin-4-yl)ethyl)-4-(4-(trifluoromethyl)benzyl)-1,4-diazepane], for which the “colonies on plates treated with compound” value in the data set on MRSA ATCC 43300 is reported as “no colony was observed”. For the same compound, the MIC in data set [1] is 8 µM (≈ 4.09 µg/mL); in data set [2], 8 µM (≈ 4.09 µg/mL); in the data set with E. coli strain ATCC25922 it was greater than 125 µM; in data set [4] (ATCC29213, S. aureus 29213, growth inhibited by ≥90%, 18 h, read-out: MIC^b: Minimum inhibitory concentration against S. aureus), 8 µM (≈ 4.09 µg/mL); in data set [4] (S. aureus ATCC29213, read-out: MIC against S. aureus), 5 to 8 µM (≈ 2.56 to 4.09 µg/mL). In addition, in data set [3], the compound solubility entry is “poor compound solubility”. Further, in data set [4] (E. coli ATCC 25922 MIC over S. aureus 29213 MIC), the “MIC^c/MIC^b: Selectivity index” value is on record as greater than 15.
